What was measured:
PAMPA permeability = assay type: in vitro ADME
[1] = system: Asexual parasites of P. falciparum strain 3D7; assay: In vitro drug activity on asexual parasites (SYBR Green assay); assay type: cell-based, Plasmodium falciparum
In short: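 SYBR Green I fluorescence (ex 490, em 520 nm) was read after freeze-thaw lysis and 30 min staining at room temperature. Before that, drug-treated cultures (0.5% parasitemia, 2% hematocrit, DMSO ≤0.5%) were incubated 72 h, in duplicate.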

Solubility at pH 7.4 = assay type: physicochemical
mTOR = mTOR (Homo sapiens, UniProt P42345); assay: mTOR activity (no method described); assay type: biochemical
[2] = Microsomal stability (rat); assay type: in vitro ADME; conditions: rat microsomes
[3] = system: Stage III-V gametocytes (blood stage P. falciparum parasites); assay: In vitro drug activity on gametocytes (AlamarBlue viability assay); assay type: cell-based, Plasmodium falciparum; conditions: read-out: Gametocyte EC50
In short: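 Viability was measured by AlamarBlue fluorescence (Ex 525/Em 598 nm) after 24 h dye incubation following 72 h compound exposure at 37° C, 5% CO2. Gametocytes, stage III–V from strains 3D7, HB3 and Dd2, were NAG/Percoll-enriched and plated at 20,000 cells/well.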

PAMPA Permeability (PAMPA permeability) | EC50 [1] | Sol @ pH 7.4 (Solubility at pH 7.4) | mTOR (mTOR) | Microsomal Stability (rat) T1/2 [2] | Compound | EC50 [3]
57.9 ×10⁻⁶ cm/s | 0.127 µM | <1.0 ug/mL | 18.36 µM | 9.4 min | N#Cc1cc(-c2ccc3ncc4ccc(=O)n(-c5ccc(C(=O)N6CCOCC6)cc5)c4c3c2)ccc1Cl [Compound 153] | 0.0529 µM
< 1 ×10⁻⁶ cm/s | 0.16 µM | <1.0 ug/mL | 0.7657 µM | 8 min | O=C(NC1CCC1)c1ccc(-n2c(=O)ccc3cnc4ccc(-c5ccc(Cl)cc5)cc4c32)cc1 [Compound 154] | 0.102 µM
< 1 ×10⁻⁶ cm/s | 1.24 µM | <1.0 ug/mL | 27.97 µM | 10.7 min | O=C(NC1CCCCC1)c1ccc(-n2c(=O)ccc3cnc4ccc(-c5ccc(Cl)cc5)cc4c32)cc1 [Compound 155] | 3.11 µM
< 1 ×10⁻⁶ cm/s | 0.687 µM | <1.0 ug/mL | 67.63 µM | 5.6 min | O=C(NC1CCCC1)c1ccc(-n2c(=O)ccc3cnc4ccc(-c5ccc(Cl)cc5)cc4c32)cc1 [Compound 156] | 1.58 µM
< 1 ×10⁻⁶ cm/s | 3.35 µM | <1.0 ug/mL | 50 µM | 6.8 min | O=C(NC1CCCCCC1)c1ccc(-n2c(=O)ccc3cnc4ccc(-c5ccc(Cl)cc5)cc4c32)cc1 [Compound 157] | 7.43 µM
< 2.4 ×10⁻⁶ cm/s | 1.55 µM | <1.0 ug/mL | 7.899 µM | 18.8 min | O=C(NC1CC1c1ccccc1)c1ccc(-n2c(=O)ccc3cnc4ccc(-c5ccc(Cl)cc5)cc4c32)cc1 (stereo not drawn) [Compound 158] | 3.56 µM
< 1 ×10⁻⁶ cm/s | 0.0961 µM | >79.0 ug/mL | 9.278 µM | >30.0 min | CN(C)Cc1ccc(-c2ccc3ncc4ccc(=O)n(-c5ccc(C(=O)N(CCO)CCO)cc5)c4c3c2)cc1 [Compound 160] | 0.27 µM
5.4 ×10⁻⁶ cm/s | 0.512 µM | >82.0 ug/mL | 47.05 µM | >30.0 min | CN(C)Cc1ccc(-c2ccc3ncc4ccc(=O)n(-c5ccc(C(=O)N6CC7CN(C)CC7C6)cc5)c4c3c2)cc1 (stereo not drawn) [Compound 161] | 1.54 µM
< 1 ×10⁻⁶ cm/s | 0.368 µM | >83.0 ug/mL | 32.08 µM | >30.0 min | CN(C)Cc1ccc(-c2ccc3ncc4ccc(=O)n(-c5ccc(C(=O)N6CCN(CCO)CC6)cc5)c4c3c2)cc1 [Compound 162] | 0.895 µM
232 ×10⁻⁶ cm/s | 0.0939 µM | >72.0 ug/mL | 6.497 µM | >30.0 min | CN(C)Cc1ccc(-c2ccc3ncc4ccc(=O)n(-c5ccc(C(=O)NC6CC6)cc5)c4c3c2)cc1 [Compound 163] | 0.246 µM
238 ×10⁻⁶ cm/s | 0.594 µM | >79.0 ug/mL | 40.42 µM | >30.0 min | CN(C)Cc1ccc(-c2ccc3ncc4ccc(=O)n(-c5ccc(C(=O)N6CCN(C)CC6)cc5)c4c3c2)cc1 [Compound 164] | 0.809 µM
1.8 ×10⁻⁶ cm/s | 0.934 µM | >80.0 ug/mL | 50 µM | >30.0 min | CN(C)Cc1ccc(-c2ccc3ncc4ccc(=O)n(-c5ccc(C(=O)N6CC7CC6CN7C)cc5)c4c3c2)cc1 (stereo not drawn) [Compound 165] | 4.09 µM
427 ×10⁻⁶ cm/s | 0.0727 µM | >70.0 ug/mL | 8.762 µM | >30.0 min | CN(C)Cc1ccc(-c2ccc3ncc4ccc(=O)n(-c5ccc(C(=O)N(C)C)cc5)c4c3c2)cc1 [Compound 166] | 0.179 µM
1.5 ×10⁻⁶ cm/s | 0.223 µM | >76.0 ug/mL | 22.69 µM | >30.0 min | CN(C)Cc1ccc(-c2ccc3ncc4ccc(=O)n(-c5ccc(C(=O)N6CCNCC6)cc5)c4c3c2)cc1 [Compound 167] | 0.469 µM
591 ×10⁻⁶ cm/s | 0.122 µM | 2.7 ug/mL | 3.773 µM | 13.3 min | N#Cc1ccc(-c2ccc3ncc4ccc(=O)n(-c5ccc(C(=O)N6CCOCC6)cc5)c4c3c2)cc1 [Compound 170] | 0.168 µM
31.3 ×10⁻⁶ cm/s | 0.0475 µM | >72.0 ug/mL | 0.1543 µM | 2.8 min | O=Cc1ccc(-c2ccc3ncc4ccc(=O)n(-c5ccc(C(=O)N6CCOCC6)cc5)c4c3c2)cn1 [Compound 171] | 0.24 µM
12.3 ×10⁻⁶ cm/s | 0.121 µM | 2.3 ug/mL | 0.9678 µM | >30.0 min | O=C(NC1C2CNCC21)c1ccc(-n2c(=O)ccc3cnc4ccc(-c5ccc(Cl)cc5)cc4c32)cc1 (stereo not drawn) [Compound 172] | 0.203 µM
49.9 ×10⁻⁶ cm/s | 0.133 µM | >68.00 ug/mL | 7.636 µM | >30.00 min | CNC(=O)c1ccc(-n2c(=O)ccc3cnc4ccc(-c5ccc(CN(C)C)cc5)cc4c32)cc1 [Compound 174] | 0.265 µM
< 1 ×10⁻⁶ cm/s | 0.451 µM | <1 ug/mL | 100 µM | 19.4 min | Cc1cc(=O)n(-c2ccc(C(=O)NC3CC3)cc2)c2c1cnc1ccc(-c3ccc(Cl)cc3)cc12 [Compound 179] | 1.7 µM
3.8 ×10⁻⁶ cm/s | 0.931 µM | 43.7 ug/mL | 2.454 µM | >30 min | NCc1cccc(-c2ccc3ncc4ccc(=O)n(-c5ccc(C(=O)N6CCOCC6)cc5)c4c3c2)c1 [Compound 180] | 1.82 µM
36.3 ×10⁻⁶ cm/s | 1.58 µM | 17.3 ug/mL | 0.8304 µM | >30 min | NC1(c2ccc(-c3ccc4ncc5ccc(=O)n(-c6ccc(C(=O)N7CCOCC7)cc6)c5c4c3)cc2)CCC1 [Compound 181] | 1.92 µM
< 1 ×10⁻⁶ cm/s | 0.0498 µM | 28.4 ug/mL | 0.7945 µM | >30 min | NCCc1ccc(-c2ccc3ncc4ccc(=O)n(-c5ccc(C(=O)N6CCOCC6)cc5)c4c3c2)cc1 [Compound 183] | 0.131 µM
292 ×10⁻⁶ cm/s | 0.171 µM | 56.1 ug/mL | 18.05 µM | >30 min | O=C(c1ccc(-n2c(=O)ccc3cnc4ccc(-c5ccc(CN6CCCC6)cc5)cc4c32)cc1)N1CCOCC1 [Compound 184] | 0.821 µM
35.5 ×10⁻⁶ cm/s | 0.352 µM | 3.4 ug/mL | 50 µM | 15.1 min | O=C(c1ccc(-n2c(=O)ccc3cnc4ccc(-c5ccc(CN6CCOCC6)cc5)cc4c32)cc1)N1CCOCC1 [Compound 185] | 1.14 µM
31.9 ×10⁻⁶ cm/s | 0.859 µM | >64.0 ug/mL | 0.4949 µM | >30.0 min | CN(C)C(=O)c1cccc(-n2c(=O)ccc3cnc4ccc(-c5ccc(N)nc5)cc4c32)c1 [Compound 332] | 1.52 µM
14.9 ×10⁻⁶ cm/s | 0.00821 µM | 30 ug/mL | 0.08872 µM | >30.0 min | Nc1ccc(-c2ccc3ncc4ccc(=O)n(-c5ccc(C(=O)N6CCOCC6)cc5)c4c3c2)cn1 [Compound 334] | 0.0197 µM
< 2.2 ×10⁻⁶ cm/s | 0.0144 µM | 2.8 ug/mL | 0.02821 µM | >30.0 min | CNC(=O)c1ccc(-n2c(=O)ccc3cnc4ccc(-c5ccc(N)nc5)cc4c32)cc1 [Compound 335] | 0.0177 µM
< 3.6 ×10⁻⁶ cm/s | 0.0102 µM | <1.0 ug/mL | 0.01971 µM | >30.0 min | NC(=O)c1ccc(-n2c(=O)ccc3cnc4ccc(-c5ccc(N)nc5)cc4c32)cc1 [Compound 336] | 0.041 µM
1460 ×10⁻⁶ cm/s | 0.165 µM | <1.0 ug/mL | 100 µM | >30.0 min | Cc1ccc(C#N)cc1-n1c(=O)n(C)c2cnc3ccc(-c4ccc(Cl)cc4)cc3c21 [Compound 400] | 0.294 µM
297 ×10⁻⁶ cm/s | 0.0867 µM | <1.0 ug/mL | 1.271 µM | >30.0 min | Cn1c(=O)n(-c2cccc(C#N)c2)c2c3cc(-c4cccc(C#N)c4)ccc3ncc21 [Compound 401] | 0.19 µM
